Data as given in ChEMBL document CHEMBL5528016, “Design, synthesis and evaluation of novel deferasirox derivatives with high antifungal potency in vitro and in vivo” (Eur J Med Chem, 2024).
In brackets after ≈: the same amount, converted by molar mass.

Legend:
[1] = system: Cryptococcus neoformans; experiment: Antifungal activity against Cryptococcus neoformans H99 assessed as reduction in fungal growth incubated for 72 hrs by broth microdilution method; type: functional
[2] = Metabolic stability in mouse liver microsomes assessed as half life; type: ADME, Microsome
[3] = Metabolic stability in mouse liver microsomes assessed as elimination rate constant; type: ADME, Microsome
[4] = Metabolic stability in mouse liver microsomes assessed as intrinsic clearance; type: ADME, Microsome; details: read-out: CLH
[5] = system: Candida albicans; experiment: Antifungal activity against Candida albicans SC5314 assessed as reduction in fungal growth incubated for 72 hrs by broth microdilution method; type: functional
[6] = system: Pichia kudriavzevii; experiment: Antifungal activity against Pichia kudriavzevii 4946 assessed as reduction in fungal growth incubated for 72 hrs by broth microdilution method; type: functional
[7] = system: Candida tropicalis; experiment: Antifungal activity against Candida tropicalis 2718 assessed as reduction in fungal growth incubated for 72 hrs by broth microdilution method; type: functional
[8] = system: Nakaseomyces glabratus; experiment: Antifungal activity against Candida glabrata 537 assessed as reduction in fungal growth incubated for 72 hrs by broth microdilution method; type: functional
[9] = system: [Candida] auris; experiment: Antifungal activity against Candida auris D12 assessed as reduction in fungal growth incubated for 72 hrs by broth microdilution method; type: functional; details: Candidozyma auris
[10] = system: Candida parapsilosis; experiment: Antifungal activity against Candida parapsilosis ATCC 22019 assessed as reduction in fungal growth incubated for 72 hrs by broth microdilution method; type: functional; details: Lodderomyces parapsilosis
[11] = system: Cryptococcus neoformans; experiment: Potency index, ratio of deferasirox MIC to test compound for antifungal activity against Cryptococcus neoformans H99 incubated for 72 hrs by broth microdilution method; type: functional
[12] = system: Nakaseomyces glabratus; experiment: Antifungal activity against Candida glabrata Y10-15 assessed as reduction in fungal growth incubated for 48 hrs by broth microdilution method; type: functional
[13] = Antifungal activity against Cryptococcus gattii VGI SCZ20024 assessed as reduction in fungal growth incubated for 72 hrs by broth microdilution method; type: functional
[14] = system: Nakaseomyces glabratus; experiment: Antifungal activity against Candida glabrata 337 assessed as reduction in fungal growth incubated for 48 hrs by broth microdilution method; type: functional
[15] = Antifungal activity against Cryptococcus gattii VGI SCZ20031 assessed as reduction in fungal growth incubated for 72 hrs by broth microdilution method; type: functional
[16] = system: Cryptococcus neoformans; experiment: Antifungal activity against Cryptococcus neoformans 20 assessed as reduction in fungal growth incubated for 72 hrs by broth microdilution method; type: functional
[17] = system: Cryptococcus neoformans; experiment: Antifungal activity against Cryptococcus neoformans 444 assessed as reduction in fungal growth incubated for 72 hrs by broth microdilution method; type: functional
[18] = Antifungal activity against Cryptococcus gattii VGI E566 assessed as reduction in fungal growth incubated for 72 hrs by broth microdilution method; type: functional
[19] = system: Nakaseomyces glabratus; experiment: Antifungal activity against Candida glabrata YC1-34 assessed as reduction in fungal growth incubated for 48 hrs by broth microdilution method; type: functional
[20] = system: Cryptococcus neoformans; experiment: Antifungal activity against Cryptococcus neoformans HN15 assessed as reduction in fungal growth incubated for 72 hrs by broth microdilution method; type: functional
[21] = system: Cryptococcus neoformans; experiment: Antifungal activity against Cryptococcus neoformans HN1 assessed as reduction in fungal growth incubated for 72 hrs by broth microdilution method; type: functional
[22] = system: Erythrocyte; experiment: Hemolytic activity in rabbit Red blood cell at 64 ug/ml; type: toxicity, cell-based, Oryctolagus cuniculus; details: dose 64 µg/ml
[23] = Antifungal activity against Cryptococcus gattii VGI WM179 assessed as reduction in fungal growth incubated for 72 hrs by broth microdilution method; type: functional
[24] = system: Cryptococcus neoformans; experiment: Antifungal activity against Cryptococcus neoformans BJ3 assessed as reduction in fungal growth incubated for 72 hrs by broth microdilution method; type: functional
[25] = system: Nakaseomyces glabratus; experiment: Antifungal activity against Candida glabrata 203 assessed as reduction in fungal growth incubated for 48 hrs by broth microdilution method; type: functional
[26] = Antifungal activity against Cryptococcus gattii VGI WM178 assessed as reduction in fungal growth incubated for 72 hrs by broth microdilution method; type: functional

## O=C(NCC1CCS(=O)(=O)C1)c1ccc(-n2nc(-c3ccccc3O)nc2-c2ccccc2O)cc1 (stereo not given)
[1]
  MIC: 8 µg/mL (≈ 15.9 µM)

## CCCNC(=O)c1ccc(-n2nc(-c3ccccc3O)nc2-c2ccccc2O)cc1
[1]
  MIC: 4 µg/mL (≈ 9.65 µM)

## O=C(NNc1ccccc1)c1ccc(-n2nc(-c3ccccc3O)nc2-c2ccccc2O)cc1
[1]
  MIC: 2 µg/mL (≈ 4.32 µM)

## O=C(NCCOc1ccccn1)c1ccc(-n2nc(-c3ccccc3O)nc2-c2ccccc2O)cc1
[1]
  MIC: 4 µg/mL (≈ 8.1 µM)

## O=C(NCc1cccnc1)c1ccc(-n2nc(-c3ccccc3O)nc2-c2ccccc2O)cc1
[1]
  MIC: 8 µg/mL (≈ 17.3 µM)

## Cc1ncc2n1-c1ccc(Cl)cc1C(c1ccccc1F)=NC2 [MIDAZOLAM]
[2]
  half-life: 4.67 min
[3]
  k el: 0.00247 s⁻¹
[4]
  microsomal CLint: 742 µL/min/mg

## O=C(NCC(=O)N1CCOCC1)c1ccc(-n2nc(-c3ccccc3O)nc2-c2ccccc2O)cc1
[1]
  MIC: 1 µg/mL (≈ 2 µM)

## O=C(NC1CCS(=O)(=O)CC1)c1ccc(-n2nc(-c3ccccc3O)nc2-c2ccccc2O)cc1
[1]
  MIC: 4 µg/mL (≈ 7.93 µM)

## O=C(c1ccc(-n2nc(-c3ccccc3O)nc2-c2ccccc2O)cc1)N1CCC(O)CC1
[1]
  MIC: 4 µg/mL (≈ 8.76 µM)

## CS(=O)(=O)CCNC(=O)c1ccc(-n2nc(-c3ccccc3O)nc2-c2ccccc2O)cc1
[1]
  MIC: 1 µg/mL (≈ 2.09 µM)

## O=C(NCCCN1CCOCC1)c1cccc(-n2nc(-c3ccccc3O)nc2-c2ccccc2O)c1
[1]
  MIC: 2 µg/mL (≈ 4 µM)

## O=C(NCCN1CCOCC1)c1ccc(-n2nc(-c3ccccc3O)nc2-c2ccccc2O)cc1
[5]
  MIC: 32 µg/mL (≈ 65.9 µM)
[6]
  MIC: 8 µg/mL (≈ 16.5 µM)
[7]
  MIC: 4 µg/mL (≈ 8.24 µM)
[8]
  MIC: < 0.125 µg/mL
[9]
  MIC: > 64 µg/mL
[1]
  MIC: 0.5 µg/mL (≈ 1.03 µM)
[10]
  MIC: 64 µg/mL (≈ 132 µM)

## COC(=O)CCNC(=O)c1ccc(-n2nc(-c3ccccc3O)nc2-c2ccccc2O)cc1
[11]
  Ratio: 4
[5]
  MIC: > 64 µg/mL
[6]
  MIC: 4 µg/mL (≈ 8.72 µM)
[7]
  MIC: 0.125 µg/mL (≈ 0.273 µM)
[8]
  MIC: < 0.125 µg/mL
[9]
  MIC: > 64 µg/mL
[1]
  MIC: 0.5 µg/mL (≈ 1.09 µM)
[10]
  MIC: > 64 µg/mL

## O=C(NCc1ccccc1)c1ccc(-n2nc(-c3ccccc3O)nc2-c2ccccc2O)cc1
[1]
  MIC: 4 µg/mL (≈ 8.65 µM)

## OC(Cn1cncn1)(Cn1cncn1)c1ccc(F)cc1F [FLUCONAZOLE]
[12]
  MIC: 4 µg/mL (≈ 13.1 µM)
[13]
  MIC: 4 µg/mL (≈ 13.1 µM)
[14]
  MIC: 2 µg/mL (≈ 6.53 µM)
[15]
  MIC: 4 µg/mL (≈ 13.1 µM)
[16]
  MIC: 8 µg/mL (≈ 26.1 µM)
[17]
  MIC: 16 µg/mL (≈ 52.2 µM)
[18]
  MIC: 32 µg/mL (≈ 104 µM)
[19]
  MIC: 2 µg/mL (≈ 6.53 µM)
[5]
  MIC: 0.125 µg/mL (≈ 0.408 µM)
[20]
  MIC: 4 µg/mL (≈ 13.1 µM)
[21]
  MIC: 2 µg/mL (≈ 6.53 µM)
[6]
  MIC: 16 µg/mL (≈ 52.2 µM)
[7]
  MIC: < 0.125 µg/mL
[22]
  Activity: Non-Toxic
[8]
  MIC: 0.25 µg/mL (≈ 0.816 µM)
[23]
  MIC: 16 µg/mL (≈ 52.2 µM)
[24]
  MIC: 8 µg/mL (≈ 26.1 µM)
[9]
  MIC: > 64 µg/mL
[10]
  MIC: 1 µg/mL (≈ 3.27 µM)
[25]
  MIC: > 64 µg/mL
[26]
  MIC: 16 µg/mL (≈ 52.2 µM)

## O=C(NCc1ccncc1)c1ccc(-n2nc(-c3ccccc3O)nc2-c2ccccc2O)cc1
[1]
  MIC: 4 µg/mL (≈ 8.63 µM)

## CNC(=O)c1ccc(-n2nc(-c3ccccc3O)nc2-c2ccccc2O)cc1
[1]
  MIC: 1 µg/mL (≈ 2.59 µM)

## O=C(NCCC1CCOCC1)c1ccc(-n2nc(-c3ccccc3O)nc2-c2ccccc2O)cc1
[5]
  MIC: 32 µg/mL (≈ 66 µM)
[6]
  MIC: 16 µg/mL (≈ 33 µM)
[7]
  MIC: 1 µg/mL (≈ 2.06 µM)
[8]
  MIC: < 0.125 µg/mL
[9]
  MIC: > 64 µg/mL
[1]
  MIC: 0.25 µg/mL (≈ 0.516 µM)
[10]
  MIC: 32 µg/mL (≈ 66 µM)

## CN1CCOC(CNC(=O)c2ccc(-n3nc(-c4ccccc4O)nc3-c3ccccc3O)cc2)C1 (stereo not given)
[5]
  MIC: 2 µg/mL (≈ 4.12 µM)
[6]
  MIC: 4 µg/mL (≈ 8.24 µM)
[7]
  MIC: 1 µg/mL (≈ 2.06 µM)
[8]
  MIC: < 0.125 µg/mL
[9]
  MIC: > 64 µg/mL
[1]
  MIC: 0.5 µg/mL (≈ 1.03 µM)
[10]
  MIC: 32 µg/mL (≈ 65.9 µM)

## COCCNC(=O)c1ccc(-n2nc(-c3ccccc3O)nc2-c2ccccc2O)cc1
[5]
  MIC: 8 µg/mL (≈ 18.6 µM)
[6]
  MIC: 1 µg/mL (≈ 2.32 µM)
[7]
  MIC: 4 µg/mL (≈ 9.29 µM)
[8]
  MIC: < 0.125 µg/mL
[9]
  MIC: > 64 µg/mL
[1]
  MIC: 0.25 µg/mL (≈ 0.581 µM)
[10]
  MIC: > 64 µg/mL

## O=C(NNCc1ccccc1)c1ccc(-n2nc(-c3ccccc3O)nc2-c2ccccc2O)cc1
[1]
  MIC: 8 µg/mL (≈ 16.8 µM)

## O=C(NCCc1ccccc1)c1ccc(-n2nc(-c3ccccc3O)nc2-c2ccccc2O)cc1
[1]
  MIC: 8 µg/mL (≈ 16.8 µM)

## O=C(Nc1ccccc1)c1ccc(-n2nc(-c3ccccc3O)nc2-c2ccccc2O)cc1
[1]
  MIC: 4 µg/mL (≈ 8.92 µM)

## O=C(c1ccc(-n2nc(-c3ccccc3O)nc2-c2ccccc2O)cc1)N1CCOCC1
[1]
  MIC: 4 µg/mL (≈ 9.04 µM)

## O=C1C[C@H](NC(=O)c2ccc(-n3nc(-c4ccccc4O)nc3-c3ccccc3O)cc2)CO1
[1]
  MIC: > 64 µg/mL

## O=C(NCCN1CCC(F)(F)CC1)c1ccc(-n2nc(-c3ccccc3O)nc2-c2ccccc2O)cc1
[1]
  MIC: 1 µg/mL (≈ 1.92 µM)

## CN1CCN(CCNC(=O)c2ccc(-n3nc(-c4ccccc4O)nc3-c3ccccc3O)cc2)CC1
[1]
  MIC: 1 µg/mL (≈ 2.01 µM)

## CC(C)(O)CCNC(=O)c1ccc(-n2nc(-c3ccccc3O)nc2-c2ccccc2O)cc1
[11]
  Ratio: 2
[5]
  MIC: 16 µg/mL (≈ 34.9 µM)
[6]
  MIC: 4 µg/mL (≈ 8.72 µM)
[7]
  MIC: 4 µg/mL (≈ 8.72 µM)
[8]
  MIC: < 0.125 µg/mL
[9]
  MIC: > 64 µg/mL
[1]
  MIC: 1 µg/mL (≈ 2.18 µM)
[10]
  MIC: > 64 µg/mL

## O=C(NCc1ccco1)c1ccc(-n2nc(-c3ccccc3O)nc2-c2ccccc2O)cc1
[1]
  MIC: 4 µg/mL (≈ 8.84 µM)

## O=C(NCC(O)c1ccccc1)c1ccc(-n2nc(-c3ccccc3O)nc2-c2ccccc2O)cc1 (stereo not given)
[1]
  MIC: 4 µg/mL (≈ 8.12 µM)
